Reference: US20200330399A1, “COMBINATION THERAPY COMPRISING A POLYUNSATURATED KETONE AND A CORTICOSTEROID” (priority 2016, published 2020)

Tested on: skin keratinocyte cell line HaCaT
Experiment: Resazurin assay of HaCaT keratinocyte cell proliferation and viability
Format: cell-based, human
Details: Example 2, 24 hours, Calcipotriol alone 10 μM, FIG. 2
Description: The spontaneously immortalized, nontumorigenic skin keratinocyte cell line HaCaT was maintained in DMEM supplemented with 5% (v/v) FBS, 0.3 mg/ml glutamine and 0.1 mg/ml gentamicin at 37° C. with 5% CO2 in a humidified atmosphere. Subculture using trypsin-EDTA was performed every 3-4 days with split ratio of 1:3-1:4 to ensure actively proliferating cells.
Cells were seeded in 96 well plates in fully supplemented medium at a density of 2500 cells per well. Following 72 hours of cultivation, the cells were starved of serum in 0.25% FBS/DMEM overnight to halt proliferation, synchronize the cells and to increase cell sensitivity to treatment. On day 4, the cells were treated with cPLA2a inhibitor Compound A and corticosteroid Betamethasone 17, 21-dipropionate (Sigma Aldrich # B1152) and left to incubate for […] in incubator at 37° C. with 5% CO2 in a humidified atmosphere before fluorescence was read at 544 nm excitation and 590 nm emission wavelength. […]
Cells were seeded in 96 well plates in fully supplemented medium at a density of 2500 cells per well. […] On day 5, resazurin was added according to the manufacturer's instruction (RnD Systems, UK) and left to incubate for 2 hour incubator at 37° C. with 5% CO2 in a humidified atmosphere before fluorescence was read at 544 nm excitation and 590 nm emission wavelength. […]

C=C1/C(=C\C=C2/CCC[C@]3(C)[C@@H]([C@H](C)/C=C/[C@@H](O)C4CC4)CC[C@@H]23)C[C@@H](O)C[C@@H]1O [Calcipotriol, Calcipotriol hydrate]
reduction of cell proliferation: 20%
